“Also recorded” adds a separate entry of the source. Where two headings read alike, the source gives them in different places.

One experiment deals with PAX7+ satellite cells. As to the kind of experiment: Primary mouse myoblast mono- and co-cultures, PAX7+ satellite cell proliferation (EdU). It counts as cell-based. The following applies: for satellite cell proliferation on supplementation: myoblast monoculture (MB) and MB+3T3 co-culture, 24 h. Here is the method: Larvae: Labelling and detection was carried out as previously described (Nguyen, P. D. et al. Muscle stem cells undergo extensive clonal drift during tissue growth via Meox1-mediated induction of G2 cell-cycle arrest. […] Cell culture: Cells were incubated for 1 h in media supplemented with 10 μM EdU. […] Cells were processed using the Click-iTTM EdU Alexa FluroTM 647 imaging Kit (Thermo Fisher) following the manufacturer's protocol. For isolation of primary mouse myoblasts, limb skeletal muscle from E17.5 C57/BL6J mice were minced and digested in 0.125% Trypsin at 37° C. for 20 min. […] Myoblasts were again depleted for fibroblasts prior to co-culturing on gelatin-coated 48 well plates in DMEM+20% FBS+10% L929-conditioned medium. 100,000 myoblasts were plated with either 7,500 MafB/c-Maf deficient (Maf-DKO) macrophages (Aziz, A., Soucie, E., Sarrazin, […]. MafB/c-Maf deficiency enables self-renewal of differentiated functional macrophages. […] For drug treatments, the media were supplemented with appropriate doses and cultured for 24 h.

A further experiment concerns C2C12 myoblasts. As to the kind of experiment: C2C12 myoblast proliferation (EdU incorporation). It counts as cell-based, mouse. Here is the method: Larvae: Labelling and detection was carried out as previously described (Nguyen, P. D. et al. Muscle stem cells undergo extensive clonal drift during tissue growth via Meox1-mediated induction of G2 cell-cycle arrest. […] Cell culture: Cells were incubated for 1 h in media supplemented with 10 μM EdU. […] Cells were processed using the Click-iTTM EdU Alexa FluroTM 647 imaging Kit (Thermo Fisher) following the manufacturer's protocol. The mouse muscle cell line […]. Serial passaging and differentiation of myogenic cells isolated from dystrophic mouse muscle. Nature 270, 725 (1977) were cultured in growth media (Dulbecco's Modified Eagle Medium (4.5 g/l D-Glucose, No L Glutamine, No Sodium Pyruvate (Gibco))+20% Fetal Bovine Solution-One Shot (Gibco)+1% Glut Max 100x (Gibco)). Cells were maintained at 37° C., 5% CO2. Cells at 70% confluence, passage 8 were extracted from T75 flasks with 0.025% Tryspin EDTA (Gibco), neutralised in growth media, spun at 180×g for 5 min to pellet cells. The cells were then resuspended in 10 ml of fresh growth media. 500 μl of cells were plated on a 8-well on cover glass II (Sarstedt) chamber slide at a density of 1×10^3 cells/ml. Cells were left 4 h at 37° C. to re-attach. For drug treatments, the media were supplemented with appropriate doses and cultured for 6 h.

For another experiment, the system named is rectus femoris muscle. The following applies: for muscle architecture / regenerated muscle area: delivered in fibrin hydrogel, 10 days post treatment. The procedure: Injury: male C57BL/6J mice aged between 10-12 weeks were anesthetised and shaved on the hind left leg. A unilateral incision measuring approximately 1 cm was made exposing the underlying fascia. The left hind limb was extended and exteriorised via the incision site by retracting the surrounding tissue. A 3×4 mm full thickness segment of the rectus femoris muscle was removed. Directly after, the injury site was filled with fibrin hydrogel with or without 200 ng or 500 ng of hrNAMPT(1) (hydrogel components; 40 μl, 8 mg/ml human fibrinogen (FIB3, Enzyme Research Laboratories), 4 U/ml bovine thrombin (T4648, Sigma), 5 mM CaCl2, 17 μg/ml of aprotinin (ab146286, Abcam)) which polymerized in the defect. Then, the soft tissue was closed with stitches.
Histology: 10 days after treatment, animals were sacrificed and the wounds were harvested for histological analysis. The defect site and associated proximal and distal segment of the quadriceps muscle (including the rectus femoris, vastus medialis and vastus lateralis) were excised and embedded. Histological analysis was performed on serial paraffin sections (4 μm sections collected passing the central portion of the wound). Multiple sections were stained with Masson's Trichrome (to detect collagen deposition) and the extent of fibrosis (represented by a blue stain) was measured by histomorphometric analysis using ImageJ software (version 1.51h, National Institutes of Health, USA). To maintain uniformity between samples, the length of the vastus medialis taken at multiple depths ranging from 1.0 mm-3.0 mm serves as a reference between tissue sections to determine the depth of sectioning. For fibrotic quantification, average muscle fibrosis area at each depth was scored and normalised with the area of the rectus femoris. Total area of muscle is determined by calculating the average area of rectus femoris at each depth.
Immune cell profiling and PAX7^+ cell quantification with flow cytometry: 4, 6 or 8 days after treatment with either 0.5 μg of hrNAMPT(1) delivered by fibrin hydrogel or control fibrin hydrogel only, mice were euthanised via CO2 asphyxiation. The defect site and associated proximal and distal segment of the quadricep muscles were isolated and placed into 890 μl of complete RPMI (with 10% FBS and 2 mM Glutamax, Life Technologies). The tissue was minced with surgical scissors and 100 μl of 10 mg/ml Collagenase II (Sigma-Aldrich) and 10 μl of 10 mg/ml DNAse I (Biolabs), while 100 μl of dispase II (10 mg/ml) was added into the digestion for PAX7 acquisition. The mixture was vortexed and incubated at 37° C. for 45 min. The collagenase was then inactivated with 500 μl ice-cold PBS, 5% FBS, 5 mM EDTA. The mixture was strained subsequently through 70 μm and 40 μm filters. The cell suspension was further diluted with 1 ml complete RPMI and centrifuged for 10 min at 300× g. The supernatant was discarded and the pellet was resuspended in 250 μl complete RPMI and aliquoted into wells of a 96-well U bottom plate for antibody staining. The cell solutions were centrifuged, supernatant discarded, and washed with PBS. The cell viability stain used was 100 μl of Zombie Aqua (Biolegend) Live-Dead dye diluted in PBS (1:400 dilution) and incubated for 30 min at 4° C. The cells were then blocked with FcX (anti-CD16/32 antibodies, Biolegend, 1 μg/ml) flow cytometry buffer (PBS, 5% FBS). The cells were kept for 20 min at 4° C., washed with flow cytometry buffer and centrifuged. […]

For experiment [1], the system named is wound-resident muscle stem cells. The experiment in a line: Larval zebrafish needle stab muscle injury, wound site proliferation (EdU). It counts as in vivo. The procedure:
4dpf larvae were anaesthetized in 0.01% tricaine (MS-222) (Sigma-Aldrich) in Ringer's solution. Mechanical injures were targeted either to the dorsal or ventral myotome above the cloaca when the larvae is oriented dorsal to the top, anterior to the left. Needle-stick injury was carried out as previously described (Gurevich, D. B. el al. Asymmetric division of clonal muscle stem cells co-ordinate muscle regeneration in vivo. Science 353 6295 aad9969 (2016)). Briefly, the myotome was subjected to a single 30-gauge needle puncture that generates an extensive injury with many damaged muscle fibres. For laser-induced injury, anaesthetised larvae were mounted in a thin layer of 1% low-melt agarose in Ringer's solution. Injuries were carried out using a UV-nitrogen laser pulsed through a coumarin 440 nm dye cell coupled to a Zeiss Axioplan microscope (MicroPoint Laser System, Andor Technology). On average a laser injury required pulses for 5-10 sec from laser beams focused through a 40× water immersion objective. For time-lapse analysis of the immediate response to injury, muscle fibre ablations were achieved using a SIM scanner (Olympus) at 790 nm and 200 msec dwell time at 100% laser power on an Olympus FVMPE-RS upright multi-photon microscope equipped with a 25×/1.05 water immersion objective. Injury-responding macrophages were tracked using the manual tracking plugin in Fiji.
Cell ablation was carried out as previously described (Pisharath, H. & Parsons, M. J. in Zebrafish 133-143 (Springer, 2009)) with minor modifications. Larvae at the appropriate stage were incubated in 5-10 mM metronidazole (Mtz) (Sigma-Aldrich) in Ringer's solution and daily refreshed until experimental end point. Drug treatments were carried out by incubating 4 dpf needle stick injured larvae in 5 and 10 μM cenicriviroc (CVC) (Med Chem Express) and 5 and 10 μM maraviroc (MVC) (Med Chem Express) in Ringer's solution immediately post injury and refreshed daily.
The effect of drug treatment on laser ablation muscle injury was assayed by treating larvae with 5 μM CVC for 2 h prior to injury and with larvae being maintained in the drug until experimental end point. […] Chemokine supplementation experiments were carried out in plasticware coated with 0.1% bovine serum albumin (BSA) overnight (rinsed in Ringer's solution prior to use) to minimise protein adsorption. Larvae were treated with 57 nM recombinant human visfatin (hrNAMPT(1)) (PeproTech), 57 nM recombinant murine CCL8/MCP-2 (mrCCL8) (PeproTech) and combinations with Mtz and CVC.
Larvae: Labelling and detection was carried out as previously described (Nguyen, P. D. et al. Muscle stem cells undergo extensive clonal drift during tissue growth via Meox1-mediated induction of G2 cell-cycle arrest. Cell Stem Cell 21, 107-119. e106 (2017))^55 with minor alteration. 6 dpf/2 dpi larvae were pulsed with 2.5 nM EdU (Thermo Fisher) for 1h and chased for a further 1.5 h prior to fixation. Cell culture: Cells were incubated for 1 h in media supplemented with 10 μM EdU. Following Edu pulse, C2C12 cells were fixed immediately, while primary mouse myoblast co-cultures were rinsed in PBS, replaced with media and incubated for a further 2 h following which the cells were fixed. Cells were processed using the Click-iT™ EdU Alexa Fluro™ 647 imaging Kit (Thermo Fisher) following the manufacturer's protocol.

Where [2] appears, read: single dose 0.5 μg in fibrin hydrogel, vs fibrin only.

On to `O=C(NCC(=O)N1CC[C@H](N[C@H]2CC[C@@](O)(c3ccc(-c4ncccn4)cn3)CC2)C1)c1cccc(C(F)(F)F)c1` [PF-4136309, reference compound], for which the “effect on macrophage-stimulated satellite cell proliferation” value with PAX7+ satellite cells (MB+macrophage co-culture, 100 nM inhibitor) is “had no negative effect”. Further, the “effect on NAMPT-stimulated satellite cell proliferation” value with PAX7+ satellite cells (with hrNAMPT, 100 nM inhibitor) is “maintained”. For the same molecule, in the experiment on C2C12 myoblasts (co-administration with NAMPT, 6 h), the “effect on NAMPT-induced myoblast proliferation” value is reported as “does not hinder NAMPT's stimulatory effect on myoblast proliferation”.

Take “Nicotinamide phosphoribosyltransferase [NAMPT]”: the “satellite cell proliferation on supplementation in presence of macrophages” value in the experiment with PAX7+ satellite cells (MB+macrophage co-culture) is recorded as “did not increase satellite cell proliferation in the presence of macrophages”. Besides, the “satellite cell proliferation on supplementation” value in the experiment on PAX7+ satellite cells is “enhanced proliferation; also recorded: stimulates proliferation of PAX7^+ satellite cells”; in the experiment with PAX7+ satellite cells (listed as hrNAMPT), “able to increase the proliferation of satellite cells in MB and MB+3T3 culture conditions”. The “centrally nucleated muscle fibres” value with rectus femoris muscle (6 days post treatment) was “significant increase the number of centrally nucleated de novo muscle fibres”. The entries for the “muscle architecture / regenerated muscle area” value with rectus femoris muscle and with rectus femoris muscle (listed as hrNAMPT) were “significantly increased the regenerated muscle area” and “able to fully restore muscle architecture”, respectively. Besides, the “decrease in average fibrotic area” value in the experiment with rectus femoris muscle (setting [2]) came out at 34.76±9.32%. Also, the “increase in average muscle area” value in the experiment on rectus femoris muscle (setting [2]) came to 3.276±0.4926 mm^2. The “wound site proliferation in macrophage-ablated larvae” value in experiment [1] (5 mM Mtz added at 4 dpf/0 dpi) is “rescues the proliferation deficit generated by ablating macrophages; also recorded: rescues the proliferative deficit that occurs upon macrophage ablation; also recorded: functioned to rescue wound site proliferation in macrophage-ablated larvae”. Besides, the “wound site proliferation, NAMPT together with CVC” value in experiment [1] (Ccr5 inhibited by CVC) was “failed to rescue the proliferation defect; also recorded: resistant to NAMPT mediated rescue; also recorded: failed to rescue the proliferation deficit when supplemented in conjunction with CVC”. For the same molecule, the “increase in wound site proliferation above control response in macrophage-ablated larvae” value in experiment [1] (macrophages ablated with Mtz) turned out to be 10.96±3.55%. For the same molecule, in experiment [1] (needle stab injury, agent alone), the “wound site muscle stem cell proliferation” value is recorded as “specifically enhanced wound-resident muscle stem cell proliferation; also recorded: increases wound site proliferation in control settings”. Moreover, in experiment [1] (needle stab injury, supplementation), the “increase in muscle stem cell proliferation within the wound site vs control” value is 30.70±4.26%.

On to “mrCCL2: recombinant murine CCL2/MCP-1 (PeproTech), CCR2-specific ligand”, for which the “myoblast proliferation, factor added alone” value in the experiment with C2C12 myoblasts (6 h in growth media) is recorded as “failed to increase proliferative rates beyond that of the control”.

Values taken from patent US20240041922A1, “METHODS AND COMPOSITIONS” (Monash University, priority 2020, published 2024).
